The source made the active and inactive calls.

The results in this text go back to ChEMBL document CHEMBL1201862, “PubChem BioAssay data set” (2004).

Assay [1] deals with G2/mitotic-specific cyclin-B1 (Homo sapiens, UniProt P14635). Kind of assay: HeLa cell cycle G2/M accumulation – FACS, mechanism study for Wee1 degradation inhibitor project, late-stage follow-up, panel member Cyclin B Degradation (AID 2088).
Another assay deals with Wee1-like protein kinase (Homo sapiens, UniProt P30291). Kind of assay: HeLa cell cycle G2/M accumulation – FACS, mechanism study for Wee1 degradation inhibitor project, late-stage follow-up, panel member Wee1 Degradation (AID 2088).
The target in another assay is Mu-type opioid receptor (Homo sapiens, UniProt P35372). In words: SAR Analysis of Antagonists of the MOR Receptor using an Image-Based Assay - Set 3. [Related pubchem assays (depositor defined):AID1777, AID1785, AID1786, AID1966, AID2133, AID2136, AID2284, AID2285, AID2420]. It is filed as functional.
Assay [2] deals with T1, Kappa-type opioid receptor (Homo sapiens, UniProt P41145). Kind of assay: SAR analysis of Antagonists of the Kappa Opioid Receptor (KOR) using an Image-Based Assay - Set 4. [Related pubchem assays (depositor defined):AID1777, AID1785]. The format is functional.
T1 sequence (P41145 whole entry): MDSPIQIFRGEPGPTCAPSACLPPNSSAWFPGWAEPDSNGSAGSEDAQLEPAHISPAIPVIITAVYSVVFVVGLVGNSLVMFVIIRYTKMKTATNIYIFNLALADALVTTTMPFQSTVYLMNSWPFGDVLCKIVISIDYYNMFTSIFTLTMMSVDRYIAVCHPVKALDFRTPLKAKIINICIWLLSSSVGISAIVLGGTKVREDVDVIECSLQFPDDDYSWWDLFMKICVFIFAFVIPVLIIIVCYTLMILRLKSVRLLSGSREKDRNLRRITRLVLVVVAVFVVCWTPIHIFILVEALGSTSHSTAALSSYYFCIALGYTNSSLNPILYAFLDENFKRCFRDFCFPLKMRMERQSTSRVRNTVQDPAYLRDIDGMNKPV
Assay [3] concerns the target Delta-type opioid receptor (Homo sapiens, UniProt P41143). Kind of assay: SAR Analysis of Antagonists of the DOR Receptor using an Image-Based Assay - Set 3. [Related pubchem assays (depositor defined):AID1777, AID1785]. The format is functional.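 Also: U2OS cells expressing DOR1 and beta-arrestin GFP stimulated with 100 nM SNC80; imaging of GFP-tagged beta-arrestin moving into spots after receptor activation.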
For assay [4], the target named is T1, Kappa-type opioid receptor. In words: SAR analysis of small molecule antagonists of the kappa opioid receptor via a luminescent beta-arrestin assay - Set 4. [Related pubchem assays (depositor defined):AID1777, AID1778, AID1785, AID1786, AID1966, AID2133, AID2136, AID2285]. The format is functional.
In another assay the target is T2, Caspase-3 (Homo sapiens, UniProt P42574).
T2 sequence (P42574 whole entry): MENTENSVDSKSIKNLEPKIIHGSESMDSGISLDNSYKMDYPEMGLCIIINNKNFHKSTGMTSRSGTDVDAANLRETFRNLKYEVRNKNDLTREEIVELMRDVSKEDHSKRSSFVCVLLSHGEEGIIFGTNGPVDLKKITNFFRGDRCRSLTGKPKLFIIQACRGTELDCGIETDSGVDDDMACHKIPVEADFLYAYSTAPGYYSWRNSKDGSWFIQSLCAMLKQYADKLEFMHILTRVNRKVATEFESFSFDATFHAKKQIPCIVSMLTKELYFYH
Kind of assay: activators of human procaspase-3 D3A mutant – biochemical, absorbance, PC-3 D3A mutant, counter-screen for dual procaspase-3/7 activator project, dose response (AID 504328). (The purpose of a counterscreen is to sort out artefacts and off-target activity.)

Another assay addresses Caspase-7 (Homo sapiens, UniProt P55210). Kind of assay: potency of procaspase-7 enzyme activation – biochemical, absorbance, human, dual procaspase-3/-7 activator project, dose response (AID 504330).
The next assay relates to HeLa. Kind of assay: viability loss in HeLa cells – cell-based, 24 h, cherry-picked samples, cytotoxicity control, dose response (AID 504726).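 Also: potency for cytotoxicity as loss of luminescence signal.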 It is filed as functional. To be noted: Homo sapiens.
The target in assay [5] is Eukaryotic translation initiation factor 4E (Mus musculus, UniProt P63073). Kind of assay: blockers of eIF4G binding by eIF4E – biochemical, TR-FRET, dose response (AID 855).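 Also: potency for disrupting eIF4E binding to eIF4GI seen as loss of FRET.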 It is filed as functional. (Time-resolved FRET reads energy transfer from a long-lived donor to a nearby acceptor.)
Assay [6] has as its target Peroxisome proliferator-activated receptor gamma/Nuclear receptor corepressor 2 (Homo sapiens, UniProt P37231+Q9Y618). In words: Counterscreen for NR2E3 inverse agonists: TR-FRET-based biochemical high throughput dose response assay to identify inverse agonists of the interaction between peroxisome proliferator-activated receptor gamma (PPARg) and nuclear receptor co-repressor 2 (NCOR2). The format is functional.

The target in assay [7] is Serine/threonine-protein phosphatase PP1-alpha catalytic subunit (Homo sapiens, UniProt P62136). In words: inhibition of protein phosphatase 1 activity – biochemical, fluorescence, dose response (AID 2403).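 Also: phosphatase turnover of OMFP into fluorescent 3-O-methylfluorescein.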
The target in a further assay is Hexokinase HKDC1 (Homo sapiens, UniProt Q2TB90). Kind of assay: inhibition of HKDC1 glucose phosphorylation – biochemical, W721R variant, dose response (AID 504729). It is filed as functional.
The target in assay [8] is T3, Serine/threonine-protein phosphatase (Homo sapiens, UniProt Q9BPW0).
T3 sequence (Q9BPW0 whole entry): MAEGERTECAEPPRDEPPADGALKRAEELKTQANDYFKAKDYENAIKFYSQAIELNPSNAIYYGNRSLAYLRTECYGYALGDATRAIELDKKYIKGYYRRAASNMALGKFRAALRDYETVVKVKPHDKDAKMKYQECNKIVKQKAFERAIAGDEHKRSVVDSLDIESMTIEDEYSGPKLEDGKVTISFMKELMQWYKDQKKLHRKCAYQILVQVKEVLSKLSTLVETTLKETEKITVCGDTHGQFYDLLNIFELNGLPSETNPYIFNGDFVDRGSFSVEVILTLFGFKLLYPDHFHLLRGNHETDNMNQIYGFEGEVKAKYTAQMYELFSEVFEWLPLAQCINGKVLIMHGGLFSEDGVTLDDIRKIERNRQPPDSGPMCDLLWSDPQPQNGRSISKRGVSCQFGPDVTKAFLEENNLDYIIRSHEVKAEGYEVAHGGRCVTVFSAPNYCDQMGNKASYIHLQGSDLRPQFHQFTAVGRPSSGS
In words: Counterscreen for inhibitors of PP1: fluorescence-based biochemical high throughput dose response assay to identify inhibitors of Protein Phosphatase 5 (PP5). [Related pubchem assays: 2034 (Summary (PP5 inhibitors)), 1987 (PP5 inhibitors in singlate), 2235 (PP1 inhibitors in singlate)].

Assay [9] deals with Photoreceptor-specific nuclear receptor (Homo sapiens, UniProt Q9Y5X4). In words: ligands suppressing NR2E3 nuclear receptor activity – biochemical, TR-FRET, dose response (AID 463256). It is filed as functional.
Photoreceptor-specific nuclear receptor, sequence (Q9Y5X4 whole entry): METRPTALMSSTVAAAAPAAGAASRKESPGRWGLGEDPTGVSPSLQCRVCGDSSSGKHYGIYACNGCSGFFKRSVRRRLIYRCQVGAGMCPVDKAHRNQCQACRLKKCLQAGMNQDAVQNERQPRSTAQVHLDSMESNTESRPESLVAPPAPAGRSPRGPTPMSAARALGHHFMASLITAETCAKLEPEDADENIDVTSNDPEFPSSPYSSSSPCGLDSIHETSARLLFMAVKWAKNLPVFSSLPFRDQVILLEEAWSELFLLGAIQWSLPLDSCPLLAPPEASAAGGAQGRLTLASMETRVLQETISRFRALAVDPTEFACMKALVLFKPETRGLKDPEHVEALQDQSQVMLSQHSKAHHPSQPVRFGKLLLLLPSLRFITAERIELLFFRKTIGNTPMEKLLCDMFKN
Assay [10] deals with Induced myeloid leukemia cell differentiation protein Mcl-1 (Homo sapiens, UniProt Q07820). The format is functional.
Induced myeloid leukemia cell differentiation protein Mcl-1, sequence (Q07820 whole entry): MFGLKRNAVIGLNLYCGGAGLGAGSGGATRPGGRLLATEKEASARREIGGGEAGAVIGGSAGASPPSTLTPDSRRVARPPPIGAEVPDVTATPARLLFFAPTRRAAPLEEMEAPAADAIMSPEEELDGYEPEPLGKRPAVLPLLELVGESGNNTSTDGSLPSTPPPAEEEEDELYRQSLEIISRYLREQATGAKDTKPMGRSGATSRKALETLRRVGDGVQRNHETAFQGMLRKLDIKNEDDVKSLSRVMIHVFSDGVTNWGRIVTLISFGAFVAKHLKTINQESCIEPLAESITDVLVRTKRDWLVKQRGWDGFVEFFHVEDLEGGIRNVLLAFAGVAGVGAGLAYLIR
In assay [11] the target is T4, Voltage-gated N-type calcium channel alpha-1B subunit/Amyloid beta A4 precursor protein-binding family A member 1 (Homo sapiens, UniProt Q00975+Q02410). Kind of assay: disruptors of Mint-PDZ/N-type channel peptide interaction – biochemical, HTRF, SAR follow-up (AID 2489). The format is functional.
T4 sequence (Q00975 whole entry): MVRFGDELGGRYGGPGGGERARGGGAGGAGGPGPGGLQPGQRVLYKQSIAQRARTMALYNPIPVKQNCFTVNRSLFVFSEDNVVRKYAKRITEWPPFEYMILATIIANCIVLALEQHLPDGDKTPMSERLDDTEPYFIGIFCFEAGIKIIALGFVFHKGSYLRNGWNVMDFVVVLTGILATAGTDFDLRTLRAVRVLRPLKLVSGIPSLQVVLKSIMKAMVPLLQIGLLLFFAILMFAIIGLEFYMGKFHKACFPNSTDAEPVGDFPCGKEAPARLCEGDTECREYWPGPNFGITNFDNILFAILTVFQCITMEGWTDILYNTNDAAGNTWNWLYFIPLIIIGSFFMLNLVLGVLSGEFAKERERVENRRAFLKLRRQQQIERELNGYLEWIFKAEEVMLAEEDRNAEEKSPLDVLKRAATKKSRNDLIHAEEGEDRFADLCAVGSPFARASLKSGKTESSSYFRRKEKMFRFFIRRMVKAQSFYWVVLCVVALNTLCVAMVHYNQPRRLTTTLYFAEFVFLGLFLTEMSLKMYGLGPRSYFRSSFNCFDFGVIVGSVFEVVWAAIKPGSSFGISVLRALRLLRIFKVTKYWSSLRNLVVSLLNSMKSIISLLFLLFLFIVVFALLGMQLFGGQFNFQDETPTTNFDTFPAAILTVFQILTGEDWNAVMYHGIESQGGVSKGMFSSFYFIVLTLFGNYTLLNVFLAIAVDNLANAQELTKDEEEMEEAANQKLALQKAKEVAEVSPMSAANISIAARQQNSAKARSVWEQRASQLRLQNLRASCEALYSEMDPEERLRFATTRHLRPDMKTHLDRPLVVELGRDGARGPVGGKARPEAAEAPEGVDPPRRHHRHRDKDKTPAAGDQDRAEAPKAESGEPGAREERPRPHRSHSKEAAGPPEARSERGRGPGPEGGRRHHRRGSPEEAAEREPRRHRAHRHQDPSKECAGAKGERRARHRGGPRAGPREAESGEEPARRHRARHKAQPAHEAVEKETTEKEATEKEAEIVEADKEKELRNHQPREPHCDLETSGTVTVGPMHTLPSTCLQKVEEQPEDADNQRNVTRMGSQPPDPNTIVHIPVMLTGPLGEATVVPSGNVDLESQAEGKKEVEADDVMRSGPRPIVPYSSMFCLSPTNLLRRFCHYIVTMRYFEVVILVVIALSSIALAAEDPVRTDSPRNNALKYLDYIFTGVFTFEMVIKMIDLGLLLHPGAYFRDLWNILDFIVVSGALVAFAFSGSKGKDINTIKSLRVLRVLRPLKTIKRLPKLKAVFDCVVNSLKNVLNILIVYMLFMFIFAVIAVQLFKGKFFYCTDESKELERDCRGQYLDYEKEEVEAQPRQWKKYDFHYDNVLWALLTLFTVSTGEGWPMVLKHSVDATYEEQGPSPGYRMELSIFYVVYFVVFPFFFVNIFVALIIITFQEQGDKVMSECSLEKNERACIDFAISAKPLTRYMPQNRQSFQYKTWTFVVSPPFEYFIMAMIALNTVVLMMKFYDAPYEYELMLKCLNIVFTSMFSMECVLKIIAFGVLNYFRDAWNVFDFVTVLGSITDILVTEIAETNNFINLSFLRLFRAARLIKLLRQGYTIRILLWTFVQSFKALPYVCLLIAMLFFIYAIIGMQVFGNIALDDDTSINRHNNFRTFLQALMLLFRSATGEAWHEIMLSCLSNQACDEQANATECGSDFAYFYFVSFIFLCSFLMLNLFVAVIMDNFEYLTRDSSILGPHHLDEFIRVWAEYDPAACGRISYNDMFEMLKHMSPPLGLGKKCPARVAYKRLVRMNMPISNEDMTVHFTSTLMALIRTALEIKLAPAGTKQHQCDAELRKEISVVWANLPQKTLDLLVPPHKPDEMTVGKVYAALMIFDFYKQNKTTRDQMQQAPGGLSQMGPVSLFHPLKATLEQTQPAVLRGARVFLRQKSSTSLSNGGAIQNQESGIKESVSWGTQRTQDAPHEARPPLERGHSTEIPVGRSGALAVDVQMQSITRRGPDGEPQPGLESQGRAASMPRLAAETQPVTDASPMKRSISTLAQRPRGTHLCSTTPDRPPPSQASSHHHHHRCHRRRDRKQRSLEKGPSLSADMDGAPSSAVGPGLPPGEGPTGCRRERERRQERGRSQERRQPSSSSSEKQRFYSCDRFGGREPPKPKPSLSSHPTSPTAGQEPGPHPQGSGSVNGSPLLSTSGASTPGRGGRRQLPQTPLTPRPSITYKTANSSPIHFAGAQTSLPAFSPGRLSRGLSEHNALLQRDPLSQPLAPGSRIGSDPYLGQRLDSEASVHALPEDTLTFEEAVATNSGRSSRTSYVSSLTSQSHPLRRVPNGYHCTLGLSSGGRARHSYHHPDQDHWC
T4 sequence (Q02410 whole entry): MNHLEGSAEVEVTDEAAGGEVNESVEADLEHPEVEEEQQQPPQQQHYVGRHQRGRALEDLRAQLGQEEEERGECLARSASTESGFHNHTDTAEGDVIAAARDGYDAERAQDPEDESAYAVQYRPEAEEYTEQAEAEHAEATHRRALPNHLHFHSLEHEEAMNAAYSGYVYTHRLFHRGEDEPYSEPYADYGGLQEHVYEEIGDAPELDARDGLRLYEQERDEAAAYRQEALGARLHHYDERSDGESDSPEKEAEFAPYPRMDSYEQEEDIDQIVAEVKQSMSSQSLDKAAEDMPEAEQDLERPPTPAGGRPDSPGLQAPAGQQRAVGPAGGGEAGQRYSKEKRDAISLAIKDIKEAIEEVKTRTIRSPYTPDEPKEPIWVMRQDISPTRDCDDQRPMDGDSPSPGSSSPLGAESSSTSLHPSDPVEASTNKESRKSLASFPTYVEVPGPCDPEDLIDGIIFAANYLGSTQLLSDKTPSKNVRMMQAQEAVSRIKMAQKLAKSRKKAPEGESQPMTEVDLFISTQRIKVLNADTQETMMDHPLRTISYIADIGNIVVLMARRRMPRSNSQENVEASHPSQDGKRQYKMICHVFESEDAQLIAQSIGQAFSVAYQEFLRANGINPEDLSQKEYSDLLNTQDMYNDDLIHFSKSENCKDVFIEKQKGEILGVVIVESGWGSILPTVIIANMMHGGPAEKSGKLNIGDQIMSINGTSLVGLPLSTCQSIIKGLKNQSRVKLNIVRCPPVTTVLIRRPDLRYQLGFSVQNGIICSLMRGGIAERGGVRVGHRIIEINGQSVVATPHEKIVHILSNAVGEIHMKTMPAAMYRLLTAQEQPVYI
For assay [12], the target named is T5, Probable nicotinate-nucleotide adenylyltransferase (Staphylococcus aureus (strain N315), UniProt P65502). It is filed as functional, Staphylococcus aureus subsp. aureus N315.
T5 sequence (P65502 whole entry): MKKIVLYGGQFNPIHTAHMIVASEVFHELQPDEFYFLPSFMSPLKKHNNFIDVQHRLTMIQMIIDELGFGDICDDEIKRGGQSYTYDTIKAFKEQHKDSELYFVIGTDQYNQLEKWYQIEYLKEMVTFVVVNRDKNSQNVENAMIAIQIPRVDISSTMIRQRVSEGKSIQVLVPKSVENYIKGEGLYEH
Assay [13] deals with T4, Voltage-gated N-type calcium channel alpha-1B subunit/Amyloid beta A4 precursor protein-binding family A member 1. It is filed as protein assay.
Assay [14] shares this target. Kind of assay: disruptors of Mint-PDZ/N-type channel peptide interaction – biochemical, HTRF, set 2, SAR follow-up (AID 434980). The format is functional.
A further assay deals with Genome polyprotein (Hepatitis C virus, UniProt Q2Q167). In words: disruption of hepatitis C core self-association – biochemical, TR-FRET, dose response (AID 2159).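 Also: blocks dimerization of HCV core protein measured by TR-FRET between tagged core106 pairs.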 The arrangement: species or system Hepacivirus hominis.
For assay [15], the target named is T5, Probable nicotinate-nucleotide adenylyltransferase. The format is functional, Staphylococcus aureus subsp. aureus N315. The settings on record: read-out: IC50_Mean.
Assay [16] concerns the target T4, Voltage-gated N-type calcium channel alpha-1B subunit/Amyloid beta A4 precursor protein-binding family A member 1. It is filed as protein assay. This is another data set of the same source.
In a further assay the target is SUMO E1/E2 (Homo sapiens, UniProt P63279+Q9UBE0+Q9UBT2). In words: SAR analysis of SUMOylation using HTRF in an in-Vitro dose response assay. [Related pubchem assays (depositor defined):AID2006, AID2011, AID2018, AID2069, AID2658]. The format is functional.
Assay [17] can be described thus: ADP-Glo luciferase signal interference – biochemical, luminescence, cherry-picked samples, set 2, artefact control for CDK5 inhibitor project, dose response (AID 504546). The format is functional, cell-based.
Assay [18] deals with Cyclin-dependent kinase 5/CDK5 activator 1 (Homo sapiens, UniProt Q00535). In words: blockade of human CDK5 activity – biochemical, cherry-picked samples, set 2, dose response (AID 504545).
In assay [19] the target is Luciferin 4-monooxygenase (Photinus pyralis, UniProt P08659). Kind of assay: inhibition of purified Photinus pyralis luciferase – biochemical, luminescence, dose response (AID 1891).
Assay [20] can be described thus: Luminescence Cell-Based Dose Confirmation HTS to Identify Inhibitors of Platelet Dense Granule Release. [Related pubchem assays: 1663 (Primary HTS), 1678 (Summary of Project)]. The format is functional.
Another assay concerns the target Bcl-2-like protein 10 (Homo sapiens, UniProt Q9HD36). In words: Bcl-B/TR3 peptide binding disruption – biochemical, fluorescence polarization, FITC-TR3 peptide, selectivity assay for Bfl-1 inhibitor project, primary screen (AID 748).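 Also: fluorescence polarization from a fluorescein-labelled TR3 peptide binding purified Bcl-B.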 For orientation: In fluorescence polarisation assays a small probe gives low polarisation when free and higher when bound to something large.

Assay [21] concerns the target T6, Calpain-2 catalytic subunit (Sus scrofa, UniProt P43367).
T6 sequence (P43367 whole entry): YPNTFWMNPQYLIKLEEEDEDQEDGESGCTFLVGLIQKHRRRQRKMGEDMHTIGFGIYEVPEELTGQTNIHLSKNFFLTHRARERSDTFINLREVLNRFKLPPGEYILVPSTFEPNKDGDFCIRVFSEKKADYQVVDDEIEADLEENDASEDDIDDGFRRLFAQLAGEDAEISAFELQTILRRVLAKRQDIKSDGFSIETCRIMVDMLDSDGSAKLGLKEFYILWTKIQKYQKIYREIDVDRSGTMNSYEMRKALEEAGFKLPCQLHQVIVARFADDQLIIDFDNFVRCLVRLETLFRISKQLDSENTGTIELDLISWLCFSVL
In words: m-calpain protease blockers, concentration series – biochemical, fluorogenic peptide substrate, dose response (AID 1420). The format is functional.

Assay [22] deals with Dual specificity protein phosphatase 3 (Homo sapiens, UniProt P51452). In words: inhibition constants for human DUSP3 – biochemical, colorimetric, SAR follow-up (AID 2004).
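For IC50 Mean in this document: confirmatory dose-response retesting of NadD inhibitor hits first found in an ultra-high-throughput screen.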

G2/mitotic-specific cyclin-B1, sequence (P14635 whole entry): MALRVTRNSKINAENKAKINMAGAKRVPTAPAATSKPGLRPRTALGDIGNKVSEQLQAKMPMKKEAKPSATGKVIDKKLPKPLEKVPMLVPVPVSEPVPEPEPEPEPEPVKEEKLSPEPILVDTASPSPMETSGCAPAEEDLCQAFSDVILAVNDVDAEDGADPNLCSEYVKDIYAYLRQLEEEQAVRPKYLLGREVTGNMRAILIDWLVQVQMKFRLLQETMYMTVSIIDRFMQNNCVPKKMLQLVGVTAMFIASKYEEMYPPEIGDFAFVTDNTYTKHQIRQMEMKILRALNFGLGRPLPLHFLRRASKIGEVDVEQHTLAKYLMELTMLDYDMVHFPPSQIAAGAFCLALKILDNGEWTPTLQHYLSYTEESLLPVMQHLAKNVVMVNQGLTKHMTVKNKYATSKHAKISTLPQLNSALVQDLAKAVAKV

As usually defined, the EC50 is the concentration at which the effect is half-maximal. On to `Cc1cc(O)nc(-n2nc(C)cc2NC(=O)c2cc3ccccc3o2)n1`, for which the EC50 in assay [1] was > 49.7 µM (inactive); at Wee1-like protein kinase it was > 16.6 µM (active).
As to `Cc1ccc(S(=O)(=O)NCc2ccc(C(=O)NC3CCN(Cc4ccccc4)C3)cc2)cc1` (stereo unspecified), the IC50 on Mu-type opioid receptor was > 32 µM (inactive); in [2], > 32 µM (inactive); in assay [3], > 32 µM (inactive); in assay [4] it was > 20 µM (inactive).
For the molecule `COc1ccc(-c2cc(C(=O)OC3CCOC3=O)c3ccccc3n2)cc1` (stereo unspecified), the EC50 on Caspase-3 and at Caspase-7 was > 85.3 µM (inactive) in each case.
As a reminder, the AC50 is the concentration at which the activity in the assay is half-maximal. With `NNc1nc2sc3c(c2c(=O)n1C1CCCCC1)CCN(Cc1ccccc1)C3`, the half-maximal activity concentration (AC50) in the assay with HeLa is 46 µM (active).
Turning to `N#Cc1ccc(CSc2nnc(NC(=O)c3ccc4ncsc4c3)s2)cc1`, the IC50 in assay [5] was 13.1 µM (active); in [6], 3.79 µM (active); in assay [7] it was 7.42 µM (active); on Hexokinase HKDC1, 10.4 µM (active); in assay [8], > 67 µM (not active); in [9], 3.91 µM (active).
As to `COc1ccc(NC(=O)c2cc(-c3ccco3)nc3ccccc23)cc1S(=O)(=O)N1CCOCC1`, the IC50 is 2.29 µM (active) in [10]; 15 µM (active) in assay [11]; 8.76 µM (active) in assay [12]; 2.59 µM (active) in assay [13]; 17.7 µM (active) in assay [14]; > 49.8 µM (not active) against Genome polyprotein. The results for the IC50 (in assay [15]; in [16]; on SUMO E1/E2) were 28.1 µM (active), 3.76 µM (active) and 19.4 µM (active), respectively.
On to `COc1ccc(C(=O)O/N=C(\C)c2ccccc2)cc1`, for which the half-maximal activity concentration (AC50) in [17] is 90.4 µM (active); in assay [18] it was 26.1 µM (active). For the same molecule, the EC50 in [19] is 0.637 µM (active); in assay [20] it was 3.61 µM (active).
Regarding `CCN(CC)CCc1c(C)[nH]c(C(=O)OCc2ccccc2)c1C`, the IC50 is 41.8 µM (active) on Bcl-2-like protein 10 and 14.4 µM (not active) in assay [21].
By Ki is commonly meant the equilibrium dissociation constant of an inhibitor or competing ligand from its target. Consider `O=Cc1ccc(Oc2ncnc3ccccc23)cc1`, for which, in [22], the Ki is 43.7 µM (inactive).
